Results as given in patent US20130165464A1, “HETEROARYLS AND USES THEREOF” (MILLENNIUM PHARMACEUTICALS, INC., priority 2011, published 2013).

Target: T1, VPS34 (Homo sapiens, UniProt Q8NEB9)
T1 construct: GST (N); host or cells: SF9 insect cells (baculovirus)
Assay: Human VPS34 enzyme assay (Adapta TR-FRET)
Type: biochemical
Settings: for inhibition at 1.11 µM: 1 h, at a 1.11 μM concentration, read-out: VPS34 Percent Inhibition
Description: VPS34 (accession number GB:BCO33004) was cloned into pDEST20-Thombin as N-terminal GST tagged fusion proteins using the Gateway system (Invitrogen, catalog#11804-013). The sequences were verified before recombinant protein expression using the Baculovirus Expression System with Gateway® Technology.
For expression VPS34 was infected at 1MOI in SF9 cells and harvested 72 hours post infection.
For purification, VPS34 is purified by Glutathione Sepharose 4 Fast Flow (GE Healthcare #17-5132-03) followed by HiTrap Q (GE Healthcare #17-1153-01).
Human VPS34 Enzyme Assay Method
100 nL compounds in DMSO are added to wells of a 384 well microtitre plate (Greiner 780076). At room temperature: 5 ul VPS34 reaction buffer (Invitrogen Assay Buffer Q (diluted 1 in 5 with nanopure water) plus 2 mM DTT and 2 mM MnCl2) containing ATP (20 uM, Promega) and 200 uM PI-PS substrate (Invitrogen PV5122) is added followed immediately by 5 ul VPS34 reaction buffer (as above) containing VPS34 (5 nM, Millennium Protein Sciences Group) and the mixture is incubated with shaking at room temperature for 1 hour. Then 5 ul VPS34 stop-detect mix (as per Invitrogen Adapta Assay kit (PV5009) instructions (contains kinase quench buffer, TR-FRET buffer, Adapta Eu anti-ADP antibody and Alexa Fluor 647 ADP tracer)) is added to quench the reaction. The plates are then incubated for 30 minutes at room temperature with shaking and then read on a BMG PheraStar Plus reader.
For the assay methods described above, test compound percent inhibition, at various concentrations, is calculated relative to control (DMSO and EDTA) treated samples. Compound concentration versus percent inhibition curves are fitted to generate IC50 values. One skilled in the art will appreciate that the values generated either as percentage inhibition at a single concentration or IC50 values are subject to experimental variation.

T1 sequence (Q8NEB9 whole entry): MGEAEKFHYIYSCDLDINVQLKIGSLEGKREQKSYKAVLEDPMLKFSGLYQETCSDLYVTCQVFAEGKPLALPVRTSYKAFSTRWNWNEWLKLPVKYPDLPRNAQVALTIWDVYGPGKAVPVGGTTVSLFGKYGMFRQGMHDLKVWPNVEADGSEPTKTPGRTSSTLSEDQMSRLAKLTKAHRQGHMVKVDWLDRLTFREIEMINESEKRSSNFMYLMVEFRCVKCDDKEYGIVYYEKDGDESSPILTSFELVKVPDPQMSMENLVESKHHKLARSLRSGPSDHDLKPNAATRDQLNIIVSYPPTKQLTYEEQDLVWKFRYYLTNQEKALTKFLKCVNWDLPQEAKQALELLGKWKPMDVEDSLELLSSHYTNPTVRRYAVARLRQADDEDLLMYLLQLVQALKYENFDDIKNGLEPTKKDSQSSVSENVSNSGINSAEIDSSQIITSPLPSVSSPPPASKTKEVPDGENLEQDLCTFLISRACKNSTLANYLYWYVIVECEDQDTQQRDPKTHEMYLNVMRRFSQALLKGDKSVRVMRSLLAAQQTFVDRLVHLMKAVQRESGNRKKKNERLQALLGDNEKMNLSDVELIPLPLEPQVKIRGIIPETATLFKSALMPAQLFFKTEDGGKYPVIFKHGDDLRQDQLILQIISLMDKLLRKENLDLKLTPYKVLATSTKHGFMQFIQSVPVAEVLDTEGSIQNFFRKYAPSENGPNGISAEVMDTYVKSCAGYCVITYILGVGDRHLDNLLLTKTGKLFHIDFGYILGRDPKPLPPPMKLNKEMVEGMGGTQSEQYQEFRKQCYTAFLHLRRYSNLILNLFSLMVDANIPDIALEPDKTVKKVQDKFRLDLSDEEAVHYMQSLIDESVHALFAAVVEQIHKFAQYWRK

Row | SMILES | IC50 [nM] | inhibition at 1.11 µM [%]
1 | COC(=O)Nc1cc(-n2cc(-c3nc[nH]n3)c(-c3ccccc3Cl)n2)c(C)cn1 [I-45, methyl {4-[3-(2-chlorophenyl)-4-(4H-1,2,4-triazol-3-yl)-1H-pyrazol-1-yl]-5-methylpyridin-2-yl}carbamate] |  | > 99
2 | Cc1cnc(NC(=O)C2CC2)cc1-n1cc(-c2ncc[nH]2)c(-c2ccccc2Cl)c1 [I-82, N-{4-[3-(2-chlorophenyl)-4-(1H-imidazol-2-yl)-1H-pyrrol-1-yl]-5-methylpyridin-2-yl}cyclopropanecarboxamide] |  | > 99
3 | COCCOC(=O)Nc1cc(-n2cc(C(N)=O)c(-c3ccccc3Cl)c2)c(C)cn1 [I-54, 2-methoxyethyl {4-[3-carbamoyl-4-(2-chlorophenyl)-1H-pyrrol-1-yl]-5-methylpyridin-2-yl}carbamate] |  | > 99
4 | CC(=O)Nc1cc(-n2cc(-c3nc[nH]n3)c(-c3ccc(F)cc3Cl)n2)c(C)cn1 [I-65, N-{4-[3-(2-chloro-4-fluorophenyl)-4-(1H-1,2,4-triazol-3-yl)-1H-pyrazol-1-yl]-5-methylpyridin-2-yl}acetamide] |  | > 99
5 | Cc1cnc(NC(=O)C(C)C)cc1-n1cc(-c2nc[nH]n2)c(-c2ccccc2Cl)c1 [I-26, N-{4-[3-(2-chlorophenyl)-4-(1H-1,2,4-triazol-3-yl)-1H-pyrrol-1-yl]-5-methylpyridin-2-yl}-2-methylpropanamide] | 150 to 1000 | 78
6 | CC(=O)Nc1cc(-n2cc(-c3nc[nH]n3)c(-c3ccccc3Cl)n2)c(Br)cn1 [I-18, N-{5-bromo-4-[3-(2-chlorophenyl)-4-(1H-1,2,4-triazol-3-yl)-1H-pyrazol-1-yl]pyridin-2-yl}acetamide] | 150 to 1000 | 89
7 | CC(=O)Nc1cc(-n2cc(-c3nc[nH]n3)c(-c3ccccc3S(C)(=O)=O)c2)ccn1 [I-38, N-(4-{3-[2-(methylsulfonyl)phenyl]-4-(1H-1,2,4-triazol-3-yl)-1H-pyrrol-1-yl}pyridin-2-yl)acetamide] |  | > 99
8 | Cc1cnc(N)cc1-n1cc(-c2nnc[nH]2)c(-c2ccccc2Cl)n1 [I-108, 4-[3-(2-chlorophenyl)-4-(4H-1,2,4-triazol-3-yl)-1H-pyrazol-1-yl]-5-methylpyridin-2-amine] | 1000 to 5000 | 10
9 | CC(=O)Nc1cc(-n2cc(C(N)=O)c(-c3cc(CN(C)C)ccc3Cl)c2)c(C)cn1 [I-70, 1-(2-acetamido-5-methylpyridin-4-yl)-4-{2-chloro-5-[(dimethylamino)methyl]phenyl}-1H-pyrrole-3-carboxamide] | 1000 to 5000 | 20
10 | COCCC(=O)Nc1cc(-n2cc(C(N)=O)c(-c3ccccc3Cl)c2)c(C)cn1 [I-79, 4-(2-chlorophenyl)-1-{2-[(3-methoxypropanoyl)amino]-5-methylpyridin-4-yl}-1H-pyrrole-3-carboxamide] |  | > 99
11 | Cc1cnc(NC(=O)C2CC2)cc1-n1cc(C(N)=O)c(-c2ccccc2Cl)n1 [I-34, 3-(2-chlorophenyl)-1-{2-[(cyclopropylcarbonyl)amino]-5-methylpyridin-4-yl}-1H-pyrazole-4-carboxamide] | 150 to 1000 | 92
12 | COc1ccccc1-c1nn(-c2cc(NC(C)=O)ncc2C)cc1-c1nc[nH]n1 [I-49, N-{4-[3-(2-methoxyphenyl)-4-(1H-1,2,4-triazol-3-yl)-1H-pyrazol-1-yl]-5-methylpyridin-2-yl}acetamide] | 150 to 1000 | 56
13 | CC(=O)Nc1cc(-n2cc(-c3nc[nH]n3)c(-c3ccccc3C)n2)c(C)cn1 [I-69, N-{5-methyl-4-[3-(2-methylphenyl)-4-(1H-1,2,4-triazol-3-yl)-1H-pyrazol-1-yl]pyridin-2-yl}acetamide] |  | > 99
14 | NC(=O)c1cn(-c2ccnc(NCCc3ccc(O)cc3)n2)nc1-c1ccccc1Cl [I-43, 3-(2-chlorophenyl)-1-(2-{[2-(4-hydroxyphenyl)ethyl]amino}pyrimidin-4-yl)-1H-pyrazole-4-carboxamide] | 1000 to 5000 | 27
15 | Cc1cnc(N)cc1-n1cc(C(N)=O)c(-c2cc(CN3CCCC3)ccc2Cl)c1 [I-75, 1-(2-amino-5-methylpyridin-4-yl)-4-[2-chloro-5-(pyrrolidin-1-ylmethyl)phenyl]-1H-pyrrole-3-carboxamide] | 1000 to 5000 | 15
16 | CC(=O)Nc1cc(-n2cc(C(=O)O)c(-c3ccccc3Cl)n2)c(C)cn1 [I-6, 1-(2-acetamido-5-methylpyridin-4-yl)-3-(2-chlorophenyl)-1H-pyrazole-4-carboxylic acid] | 150 to 1000 | 97
17 | COCCC(=O)Nc1cc(-n2cc(-c3nc[nH]n3)c(-c3ccccc3Cl)c2)c(C)cn1 [I-74, N-{4-[3-(2-chlorophenyl)-4-(1H-1,2,4-triazol-3-yl)-1H-pyrrol-1-yl]-5-methylpyridin-2-yl}-3-methoxypropanamide] |  | > 99
18 | O=C(O)c1cn(-c2ccnc(NCCc3ccccc3)n2)nc1-c1ccccc1Cl [I-30, 3-(2-chlorophenyl)-1-{2-[(2-phenylethyl)amino]pyrimidin-4-yl}-1H-pyrazole-4-carboxylic acid] | 1000 to 5000 | 14
19 | CC(=O)Nc1cc(-n2cc(C(N)=O)c(-c3ccccc3Cl)c2)c(Cl)cn1 [I-37, 1-(2-acetamido-5-chloropyridin-4-yl)-4-(2-chlorophenyl)-1H-pyrrole-3-carboxamide] | 150 to 1000 | 88

Other lines, results leading:

Row | IC50 [nM] | inhibition at 1.11 µM [%] | SMILES
20 | 150 to 1000 | 98 | CC(=O)Nc1cc(-n2cc(-c3ccccc3Cl)c(-c3nnc[nH]3)n2)ccn1 [I-1, N-{4-[4-(2-chlorophenyl)-3-(1H-1,2,4-triazol-3-yl)-1H-pyrazol-1-yl]pyridin-2-yl}acetamide]
21 | 150 to 1000 | 93 | CC(=O)Nc1cc(-n2cc(CO)c(-c3ccccc3Cl)c2)c(C)cn1 [I-85, N-{4-[3-(2-chlorophenyl)-4-(hydroxymethyl)-1H-pyrrol-1-yl]-5-methylpyridin-2-yl}acetamide]
22 | < 50 | > 99 | CC(=O)Nc1cc(-n2cc(C(N)=O)c(-c3ccccc3Cl)c2)ccn1 [I-2, 1-(2-acetamidopyridin-4-yl)-4-(2-chlorophenyl)-1H-pyrrole-3-carboxamide]
23 | < 50 | > 99 | COC(=O)Nc1cc(-n2cc(C(N)=O)c(-c3ccccc3Cl)c2)c(C)cn1 [I-36, methyl {4-[3-carbamoyl-4-(2-chlorophenyl)-1H-pyrrol-1-yl]-5-methylpyridin-2-yl}carbamate]
24 | 150 to 1000 | 89 | CC(=O)Nc1cc(-n2cc(-c3nc[nH]n3)c(-c3ccc(C(F)(F)F)cc3Cl)n2)c(C)cn1 [I-66, N-(4-{3-[2-chloro-4-(trifluoromethyl)phenyl]-4-(1H-1,2,4-triazol-3-yl)-1H-pyrazol-1-yl}-5-methylpyridin-2-yl)acetamide]
25 | < 50 | > 99 | CC(=O)Nc1cc(-n2cc(-c3nc[nH]n3)c(-c3ccccc3Cl)n2)c(F)cn1 [I-44, N-{4-[3-(2-chlorophenyl)-4-(1H-1,2,4-triazol-3-yl)-1H-pyrazol-1-yl]-5-fluoropyridin-2-yl}acetamide]
26 | < 50 | > 99 | Cc1cnc(NC(=O)C2CC2)cc1-n1cc(-c2nc[nH]n2)c(-c2cc(CN3CCCC3)ccc2Cl)c1 [I-84, N-(4-{3-[2-chloro-5-(pyrrolidin-1-ylmethyl)phenyl]-4-(1H-1,2,4-triazol-3-yl)-1H-pyrrol-1-yl}-5-methylpyridin-2-yl)cyclopropanecarboxamide]
27 | < 50 | > 99 | COC(=O)Nc1cc(-n2cc(-c3nc[nH]n3)c(-c3ccccc3Cl)c2)c(C)cn1 [I-55, methyl {4-[3-(2-chlorophenyl)-4-(1H-1,2,4-triazol-3-yl)-1H-pyrrol-1-yl]-5-methylpyridin-2-yl}carbamate]
28 | < 50 | > 99 | O=C(Nc1cc(-n2cc(-c3nc[nH]n3)c(-c3ccccc3Cl)n2)ccn1)C1CC1 [I-23, N-{4-[3-(2-chlorophenyl)-4-(1H-1,2,4-triazol-3-yl)-1H-pyrazol-1-yl]pyridin-2-yl}cyclopropanecarboxamide]
29 | < 50 | > 99 | CC(=O)Nc1cc(-n2cc(-c3nc[nH]n3)c(-c3ccccc3Cl)c2)c(C)cn1 [I-31, N-{4-[3-(2-chlorophenyl)-4-(1H-1,2,4-triazol-3-yl)-1H-pyrrol-1-yl]-5-methylpyridin-2-yl}acetamide]
30 | < 50 | > 99 | Cc1cnc(NC(=O)OCCF)cc1-n1cc(-c2nc[nH]n2)c(-c2ccccc2Cl)c1 [I-81, 2-fluoroethyl {4-[3-(2-chlorophenyl)-4-(1H-1,2,4-triazol-3-yl)-1H-pyrrol-1-yl]-5-methylpyridin-2-yl}carbamate]
